Legend:
human JAK2 = target: T1, human JAK2 (Homo sapiens, UniProt O60674); experiment: Alphascreen tyrosine kinase enzyme assay, JAK2 kinase domain; type: biochemical; conditions: read-out: JAK2 IC50_nM
T1 construct: The kinase domain of human JAK2 was amplified; GST (N); made in house; host or cells: Sf9 insect cells (baculovirus)
Outline: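 JAK2 kinase domain expressed in baculovirus/Sf9 and glutathione-affinity purified. Compounds (final […]) pre-incubated 20 min with enzyme in 10 mM HEPES pH 7.5, MgCl2, NaCl, vanadate, 0.1% Tween 20.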

CTLL2 = experiment: Cellular screening, CTLL2 cells, Alamar Blue; type: cell-based; conditions: Mus musculus, CTLL-2, read-out: CTLL2 IC50_nM
Outline: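 Viability is read with Alamar Blue at 544 nm, the dye added for the final 4-6 hours. Compounds were incubated for 40 hr with CTLL2 cells taken from late-log-phase culture, at 37° C in 5% CO2.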

T1 sequence (O60674 849-1124 limits assumed): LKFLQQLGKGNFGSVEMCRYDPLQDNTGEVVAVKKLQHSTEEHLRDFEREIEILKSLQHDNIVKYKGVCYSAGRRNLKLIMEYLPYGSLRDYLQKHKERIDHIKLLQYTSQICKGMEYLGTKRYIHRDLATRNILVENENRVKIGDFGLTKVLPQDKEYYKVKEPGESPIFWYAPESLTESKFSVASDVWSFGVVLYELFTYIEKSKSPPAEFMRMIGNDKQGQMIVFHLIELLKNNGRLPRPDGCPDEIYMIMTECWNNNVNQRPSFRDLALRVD

| SMILES | IC50 (human JAK2) [nM] | IC50 (CTLL2) [nM] |
| --- | --- | --- |
| Cc1cnc(Nc2cccc(NS(C)(=O)=O)c2)nc1Sc1ccc(CO)cc1 [Compound 226, N-(3-(4-(4-(hydroxymethyl)phenylthio)-5-methylpyrimidin-2-ylao)phenyl)methanesulfonamide] | > 1000 |  |
| Cc1cnc(Nc2ccc(N3CCOCC3)cc2)nc1Sc1ccc(C(C#N)N2CCOCC2)cc1 (stereo not drawn) [Compound 223, 2-(4-(5-methyl-2-(4-morpholinophenylao)pyrimidin-4-ylthio)phenyl)-2-morpholinoacetonitrile] | > 1000 | < 5000 |
| Cc1cnc(Nc2ccc(N3CCOCC3)cc2)nc1Sc1cccc(CO)c1 [Compound 212, (3-(5-methyl-2-(4-morpholinophenylao)pyrimidin-4-ylthio)phenyl)methanol] | < 500 | > 20000 |
| NC(=O)c1ccc(Sc2ccnc(Nc3ccc(N4CCOCC4)cc3)n2)cc1 [Compound 207, 4-(2-(4-morpholinophenylao)pyrimidin-4-ylthio)benzamide] | > 1000 |  |
| Cc1cnc(Nc2ccc(N3CCOCC3)cc2)nc1Sc1ccc(N2CCSCC2=O)cc1 [Compound 197, 4-(4-(5-methyl-2-(4-morpholinophenylao)pyrimidin-4-ylthio)phenyl)thiomorpholin-3-one] | > 1000 | > 20000 |
| c1cc(Sc2ccc(Cn3cncn3)cc2)nc(Nc2ccc(N3CCOCC3)cc2)n1 [Compound 204, 4-(4-((1H-1,2,4-triazol-1-yl)methyl)phenylthio)-N-(4-morpholinophenyl)pyrimidin-2-ae] | < 1000 | < 20000 |
| Cc1cnc(Nc2ccc(N3CCOCC3)cc2)nc1Sc1ccc(C=O)cc1 [Compound 219, 4-(5-methyl-2-(4-morpholinophenylao)pyrimidin-4-ylthio)benzaldehyde] | > 1000 | > 20000 |
| N#CCc1ccc(Sc2ccnc(Nc3ccc(N4CCOCC4)cc3)n2)cc1 [Compound 210, 2-(4-(2-(4-morpholinophenylao)pyrimidin-4-ylthio)phenyl)acetonitrile] | > 1000 | > 20000 |
| Cc1cnc(Nc2ccc(N3CCOCC3)cc2)nc1Sc1ccc(CO)cc1 [Compound 220, (4-(5-methyl-2-(4-morpholinophenylao)pyrimidin-4-ylthio)phenyl)methanol] | < 500 | < 1000 |
| Cc1cnc(Nc2ccc(N3CCOCC3)cc2)nc1Sc1ccc(NC(=O)CO)cc1 [Compound 229, 2-hydroxy-N-(4-(5-methyl-2-(4-morpholinophenylao)pyrimidin-4-ylthio)phenyl)acetamide] | < 1000 | < 20000 |
| Cc1cnc(Nc2cccc(S)c2)nc1Sc1ccc(NC(=O)CCl)cc1 [Compound 195, 2-chloro-N-(4-(2-(3-mercaptophenylao)-5-methylpyrimidin-4-ylthio)phenyl)acetamide] | > 1000 | > 20000 |
| N#Cc1ncn(Cc2ccc(Sc3ccnc(Nc4ccc(N5CCOCC5)cc4)n3)cc2)c1N [Compound 202, 5-ao-1-(4-(2-(4-morpholinophenylao)pyrimidin-4-ylthio)benzyl)-1H-imidazole-4-carbonitrile] | < 1000 | < 5000 |
| Cc1cnc(Nc2ccc(N3CCOCC3)cc2)nc1Sc1ccc(C(=O)N2CCCC2)cc1 [Compound 224, (4-(5-methyl-2-(4-morpholinophenylao)pyrimidin-4-ylthio)phenyl)(pyrrolidin-1-yl)methanone] | < 1000 | > 20000 |
| N#Cc1c(N)ncn1Cc1ccc(Sc2ccnc(Nc3ccc(N4CCOCC4)cc3)n2)cc1 [Compound 203, 4-ao-1-(4-(2-(4-morpholinophenylao)pyrimidin-4-ylthio)benzyl)-1H-imidazole-5-carbonitrile] | < 1000 | < 1000 |
| Cc1cnc(Nc2ccc(N3CCOCC3)cc2)nc1Sc1ccc(CC#N)cc1 [Compound 222, 2-(4-(5-methyl-2-(4-morpholinophenylao)pyrimidin-4-ylthio)phenyl)acetonitrile] | > 1000 | > 20000 |
| N#Cc1c(N)ncn1Cc1cccc(Sc2ccnc(Nc3ccc(N4CCOCC4)cc3)n2)c1 [Compound 199, 4-ao-1-(3-(2-(4-morpholinophenylao)pyrimidin-4-ylthio)benzyl)-1H-imiazole-5-carbonitrile] | < 1000 | < 20000 |
| CON(C)C(=O)c1ccc(Sc2nc(Nc3ccc(N4CCOCC4)cc3)ncc2C)cc1 [Compound 218, N-methoxy-N-methyl-4-(5-methyl-2-(4-morpholinophenylao)pyrimidin-4-ylthio)benzamide] | > 1000 | > 20000 |
| Cc1cnc(Nc2ccc(N3CCOCC3)cc2)nc1Sc1ccc(N2C(=O)COCC2=O)cc1 [Compound 190, 4-(4-(5-methyl-2-(4-morpholinophenylao)pyrimidin-4-ylthio)phenyl)morpholine-3,5-dione] | < 500 | > 20000 |
| Cc1cnc(Nc2ccc(N3CCOCC3)cc2)nc1Sc1ccc(C(C#N)N2CCN(C)CC2)cc1 (stereo not drawn) [Compound 225, 2-(4-(5-methyl-2-(4-morpholinophenylao)pyrimidin-4-ylthio)phenyl)-2-(4-methylpiperazin-1-yl)acetonitrile] | > 1000 | < 5000 |
| C=CC(=O)Nc1cccc(Nc2nccc(SC)n2)c1 [Compound 7, N-(3-(4-(methylthio)pyrimidin-2-ylao)phenyl)acrylamide] | > 1000 | < 5000 |
| Cc1cnc(Nc2ccc(O)cc2)nc1Sc1ccc(N)cc1 [Compound 191, 4-(4-(4-aophenylthio)-5-methylpyrimidin-2-ylao)phenol] | > 1000 | < 5000 |
| Cc1cnc(Nc2ccc(N3CCOCC3)cc2)nc1Sc1ccc(NC2CCOC2=O)cc1 (stereo not drawn) [Compound 228, 3-(4-(5-methyl-2-(4-morpholinophenylao)pyrimidin-4-ylthio)phenylao)dihydrofuran-2(3H)-one] | > 1000 | > 20000 |

— patent publication US8846704B2, “Thiopyrimidine-based compounds and uses thereof” (YM Biosciences Austraila Pty Ltd, priority 2007, dated 2014)
